Results on two compounds are retold here after PMC10896221, “Elucidating the glycan-binding specificity and structure of Cucumis melo agglutinin, a new R-type lectin” (Beilstein Journal of Organic Chemistry, 2024).

Experiment [1] concerns the target T1, Cucumis melo agglutinin (CMA1) (Cucumis melo, UniProt A0A1S4E5V9, L33V).
T1 construct: gene LOC107992255; CMA1-Nter, N-terminal domain (6–132 in mature protein)
Description: X-ray crystal structure ([…] Å) and ITC; thermal shift with full-length protein. In kind it is binding.

Experiment [2] deals with T2, Cucumis melo agglutinin (CMA1) (Cucumis melo, UniProt A0A1S4E5V9).
T2 construct: gene LOC107992255; full-length CMA1, both CBM13 domains; probably CHO-S expressed with C-terminal His6
As to the kind of experiment: X-ray crystal structure ([…] Å); SPR competition on GalNAc chip. It counts as binding.

T2 sequence (A0A1S4E5V9 entry or part of it): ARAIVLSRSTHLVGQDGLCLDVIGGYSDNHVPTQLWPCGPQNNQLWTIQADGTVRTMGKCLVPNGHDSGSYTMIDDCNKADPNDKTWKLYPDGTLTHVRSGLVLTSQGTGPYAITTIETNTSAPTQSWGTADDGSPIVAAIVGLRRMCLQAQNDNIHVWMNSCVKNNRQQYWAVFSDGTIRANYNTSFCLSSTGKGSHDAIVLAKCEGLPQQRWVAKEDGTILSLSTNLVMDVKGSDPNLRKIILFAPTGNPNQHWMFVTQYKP
T1 sequence (A0A1S4E5V9 entry or part of it L33V): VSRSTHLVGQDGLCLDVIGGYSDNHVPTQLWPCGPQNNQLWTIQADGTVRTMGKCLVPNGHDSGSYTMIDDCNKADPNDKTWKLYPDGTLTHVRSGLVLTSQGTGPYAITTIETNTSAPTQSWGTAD

As a reminder, the Kd is the free concentration of one partner at which half of the binding sites on the other are occupied at equilibrium, for simple one-to-one binding. On to `CC(=O)N[C@@H]1[C@@H](O)[C@@H](O)[C@@H](CO)O[C@H]1O` [GalNAc], for which, in experiment [1], the Kd came out at 940 µM.

Usually IC50 stands for the concentration that inhibits the measured activity by half. Low values mean inhibition by little substance, high ones a need for much substance. In turn, `CC(=O)N[C@@H]1[C@@H](O)[C@H](O[C@@H]2O[C@H](CO)[C@H](O)[C@H](O)[C@H]2O)[C@@H](CO)O[C@@H]1O` [LacNAc, N-acetyllactosamine] displayed an IC50 in experiment [2] of 1.4 µM. In other words, the single-digit micromolar range.
